Reference: paper PMC11219871, “Epigenetic-based differentiation therapy for Acute Myeloid Leukemia” (Nature Communications, 2024)
pIC50: −log10 of the molar value. Where “and” joins values, the source holds several entries; their conditions need not be identical. Identical values can stand only once. Like-named read-outs stand apart in the source and are kept apart here.

Assays:
[1] = target: T1, ATAD2A (Homo sapiens, UniProt Q6PL18); test: Epigenetic panel (BPS Bioscience); type: binding
T1 construct: purchased BPS Bioscience; Eurofins (HDAC4, 5, 7-11)
Excerpt: The selectivity of CM-444 and CM-1758 against other epigenetic targets, including histone demethylase (JMJD2A, JMJD2B, JMJD2C, JMJD2D, JMJD2E, JMJD3, JMJD1A, LSD1, Jarid1A, Jarid1B, Jarid1C, FBXL10, FBXL11, JHDM1D, JMJD1B, PHF8, LSD2 and UTX); histone acetyltransferases (GCN5, P300); histone methyltransferases (G9a, GLP, MLL1, SET7/9, SUV39H1, SUV39H2, PRMT1, PRMT3, PRMT4, PRMT5, PRMT6, PRMT8, PRMT9, NSD1, NSD2, EZH1, EZH2, SETDB1, SETD2, SET8, SUV4-20H1, SMYD2, SMYD3, DOT1L, EZH2 (A677G), EZH2 (A677G), EZH2 (A738T), EZH2 (Y641S), EZH2 (P132S), EZH2 (Y641C), EZH2 (Y641F), EZH2 (Y641H), EZH2 (Y641N)); bromodomains (ATAD2B, ATAD2A, BRD1, BRD9, BPTF/FALZ, CeCR2, BRPF3, BRD3 (BD1 + BD2), BAZ2B, WDR9, TAF1 (BD2), TAF1L (BD2), TAF1L (BD1 + BD2), BRD2 (BD1), BRD2 (BD2), BRD2 (BD1 + BD2), BRD3 (BD1), BRD3 (BD2), BRD4 (BD1), BRD4 (BD2), BRD4 (BD1 + BD2), BRDT (BD1), BRDT (BD1 + BD2), CREBBP, SMARCA2A, SMARCA4/BRG1); DNA methyltranferases (DNMT1, DNMT3A/3L and DNMT3B/3L), and sirtuin histone deacetylases (SIRT1, SIRT2, SIRT3, SIRT5 and SIRT6), were determined by BPS Bioscience (http://www.bpsbioscience.com/index.ph). Binding experiments were performed in duplicate at a concentration of 10 μM.

[2] = target: HDAC1 (Homo sapiens, UniProt Q13547); test: HDAC enzymatic assay, fluorescence-labeled substrate; type: biochemical
[3] = system: HL-60; test: q-RT-PCR of MYC, CDKN2A, CDKN1A, GATA2, TAL1, CEBPA, SPI1; type: cell-based, human
Experimental: (§1) RNA was extracted with TRIzol Reagent (Invitrogen) according to the manufacturer’s instructions. First, cDNA was synthesized from 1 µg of total RNA using the PrimeScript RT reagent Kit (Perfect Real Time) (Cat No RR037A, TaKaRa) following the manufacturer’s instructions. The quality of cDNA was checked by a multiplex PCR that amplifies PBGD, ABL, BCR and β2-MG genes. […] The following program conditions were used for the q-PCR: 50 °C for 2 min, 95 °C for 60 s following by 45 cycles at 95 °C for 15 s and 60 °C for 60 s; melting program, one cycle at 95 °C for 15 s, 40 °C for 60 s, and 95 °C for 15 s. The relative expression of each gene was quantified by the […] method using the gene GUS as an endogenous control. The sequence of primers used can be found in Supplementary Table 10.

[4] = system: MOLM-13; test: as above; type: cell-based, human
Experimental: as §1

[5] = system: ML-2; test: as above; type: cell-based, human
Experimental: as §1

[6] = system: MV4-11; test: as above; type: cell-based, human
Experimental: as §1

[7] = target: HDAC3 (Homo sapiens, UniProt O15379); test: HDAC enzymatic assay, fluorescence-labeled substrate; type: biochemical
[8] = HL-60, replicates 1-3 (Figure 2E)
[9] = HL-60, replicates 1-3 (Figure 2G)
[10] = HL-60 treated daily for 48 h, replicates (Fig 6F)
[11] = MOLM-13, daily treatment for 48 h, replicates 1-3
[12] = ML-2, replicates 1-3 (Figure 2E)
[13] = ML-2, replicates 1-3 (Figure 2G)
[14] = ML-2 treated daily for 48 h, replicates (Fig 6G)
[15] = MV4-11, daily treatment for 48 h, replicates 1-3

Sequence of HDAC1 (Q13547 whole entry): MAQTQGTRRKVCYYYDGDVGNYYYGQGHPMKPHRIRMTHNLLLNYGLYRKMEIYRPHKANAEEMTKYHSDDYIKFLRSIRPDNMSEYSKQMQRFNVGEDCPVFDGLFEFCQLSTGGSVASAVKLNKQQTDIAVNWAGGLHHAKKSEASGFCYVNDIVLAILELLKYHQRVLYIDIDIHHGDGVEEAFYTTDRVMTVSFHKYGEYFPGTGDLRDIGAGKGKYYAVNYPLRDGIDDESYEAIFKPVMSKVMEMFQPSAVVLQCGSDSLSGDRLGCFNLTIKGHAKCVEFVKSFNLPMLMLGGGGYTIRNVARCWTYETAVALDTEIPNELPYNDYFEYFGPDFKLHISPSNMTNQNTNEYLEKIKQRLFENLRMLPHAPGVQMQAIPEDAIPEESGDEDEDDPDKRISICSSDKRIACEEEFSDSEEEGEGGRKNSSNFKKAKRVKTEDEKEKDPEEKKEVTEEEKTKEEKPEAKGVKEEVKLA
Sequence of HDAC3 (O15379 whole entry): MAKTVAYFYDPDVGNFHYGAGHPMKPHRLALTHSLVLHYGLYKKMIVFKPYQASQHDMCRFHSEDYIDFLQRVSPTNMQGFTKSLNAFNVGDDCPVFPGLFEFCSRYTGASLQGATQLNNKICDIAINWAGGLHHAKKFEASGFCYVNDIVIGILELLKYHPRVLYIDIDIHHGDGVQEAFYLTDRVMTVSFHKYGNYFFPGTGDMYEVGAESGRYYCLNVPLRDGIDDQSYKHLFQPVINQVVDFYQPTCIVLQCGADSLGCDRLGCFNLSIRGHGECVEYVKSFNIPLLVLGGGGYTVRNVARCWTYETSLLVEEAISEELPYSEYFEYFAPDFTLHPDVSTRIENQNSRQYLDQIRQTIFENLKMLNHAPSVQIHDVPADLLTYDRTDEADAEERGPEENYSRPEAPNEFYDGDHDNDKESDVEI
Sequence of HDAC3 (Q9Y618 395-489 partner limits assumed): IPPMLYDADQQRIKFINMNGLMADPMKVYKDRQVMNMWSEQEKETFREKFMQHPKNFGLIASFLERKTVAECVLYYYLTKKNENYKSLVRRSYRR
T1 sequence (Q6PL18 whole entry): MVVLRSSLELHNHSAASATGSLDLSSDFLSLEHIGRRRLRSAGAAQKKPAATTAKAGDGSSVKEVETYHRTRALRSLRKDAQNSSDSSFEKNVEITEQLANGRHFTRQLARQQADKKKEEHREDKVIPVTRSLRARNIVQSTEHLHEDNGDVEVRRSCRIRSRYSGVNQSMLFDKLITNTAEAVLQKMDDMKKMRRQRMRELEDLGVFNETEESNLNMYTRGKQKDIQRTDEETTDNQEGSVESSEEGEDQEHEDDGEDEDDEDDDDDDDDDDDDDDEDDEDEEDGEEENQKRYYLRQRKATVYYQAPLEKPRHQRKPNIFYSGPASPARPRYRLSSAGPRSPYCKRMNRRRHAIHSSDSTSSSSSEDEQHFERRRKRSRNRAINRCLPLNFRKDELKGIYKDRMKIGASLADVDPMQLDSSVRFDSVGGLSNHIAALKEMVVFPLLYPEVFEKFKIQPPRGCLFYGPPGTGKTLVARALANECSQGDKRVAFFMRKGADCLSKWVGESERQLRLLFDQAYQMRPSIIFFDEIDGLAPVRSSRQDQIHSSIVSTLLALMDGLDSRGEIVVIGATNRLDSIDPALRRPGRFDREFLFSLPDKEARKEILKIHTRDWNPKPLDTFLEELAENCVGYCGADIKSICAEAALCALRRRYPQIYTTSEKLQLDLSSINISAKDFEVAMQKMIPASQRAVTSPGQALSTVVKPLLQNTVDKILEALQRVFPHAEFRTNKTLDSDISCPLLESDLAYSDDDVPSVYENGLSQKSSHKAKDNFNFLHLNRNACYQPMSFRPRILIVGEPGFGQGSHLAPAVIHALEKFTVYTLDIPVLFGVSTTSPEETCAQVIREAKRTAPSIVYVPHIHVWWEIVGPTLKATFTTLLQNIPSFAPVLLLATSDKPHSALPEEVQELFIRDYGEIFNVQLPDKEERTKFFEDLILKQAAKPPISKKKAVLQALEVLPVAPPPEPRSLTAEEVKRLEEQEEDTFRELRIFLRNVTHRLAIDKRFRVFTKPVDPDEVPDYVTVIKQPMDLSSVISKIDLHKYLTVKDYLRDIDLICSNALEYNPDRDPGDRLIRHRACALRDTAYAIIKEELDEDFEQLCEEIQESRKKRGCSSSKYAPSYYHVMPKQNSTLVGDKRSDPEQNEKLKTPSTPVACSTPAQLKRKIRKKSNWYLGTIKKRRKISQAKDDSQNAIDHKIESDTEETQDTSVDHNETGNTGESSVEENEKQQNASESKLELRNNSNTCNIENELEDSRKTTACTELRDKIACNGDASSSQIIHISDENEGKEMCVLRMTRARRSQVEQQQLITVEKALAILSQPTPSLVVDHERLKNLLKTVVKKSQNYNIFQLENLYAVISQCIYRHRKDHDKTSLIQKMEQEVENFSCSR

## COc1cc2nc(-c3cc(C)oc3C)cc(NCC3CCN(c4ncc(C(=O)NO)cn4)CC3)c2cc1OC [CM-1758, 2-[4-[[[2-(2,5-dimethyl-3-furyl)-6,7-dimethoxy-4-quinolyl]amino]methyl] -1-piperidyl]pyrimidine-5-carbohydroxamic acid]
[1]
  inhibition at 10 µM: 0%
[2]; 10 µM, source data of Fig. 1B
  inhibition at 10 µM: 90%
[2]; read-out: HDAC1 IC50
  pIC50: 8.36
[2]; read-out: IC50
  pIC50: 8.37
[3]; [8]
  q-PCR of CDKN1A (p21), log10 (2-ΔΔCt): 1.37 and 1.926 and 1.271
  q-PCR of CDKN2A (p16), log10 (2-ΔΔCt): 0.4933 and 0.5726 and 0.5849
  q-PCR of MYC, log10 (2-ΔΔCt): -0.8313 and -0.6255 and -0.6597
[3]; [9]
  q-PCR of CEBPA, log10 (2-ΔΔCt): 0.9022 and 0.7826 and 0.9863
  q-PCR of GATA2, log10 (2-ΔΔCt): 0.6526 and 0.7826 and 0.7794
  q-PCR of SPI1 (PU.1), log10 (2-ΔΔCt): 0.3258 and 0.4025 and 0.5101
  q-PCR of TAL1 (SCL), log10 (2-ΔΔCt): 0.0125 and 0.0025 and -0.00845
[3]; [10]
  q-PCR of CEBPA: 1.657 log10 (2-ΔΔCt) and 1.235 log10 (2-ΔΔCt) and 2.096 log10 (2-ΔΔCt)
  q-PCR of GATA2: 0.5314 log10 (2-ΔΔCt) and 0.9421 log10 (2-ΔΔCt) and 0.9001 log10 (2-ΔΔCt)
  q-PCR of MYC: -0.7182 log10 (2-ΔΔCt) and -0.6003 log10 (2-ΔΔCt) and -0.8615 log10 (2-ΔΔCt)
  q-PCR of SPI1: 0.5322 log10 (2-ΔΔCt) and 0.69 log10 (2-ΔΔCt) and 0.7959 log10 (2-ΔΔCt)
  q-PCR of TAL1: 1.7134 log10 (2-ΔΔCt) and 1.966 log10 (2-ΔΔCt) and 2.209 log10 (2-ΔΔCt)
[4]; [11]
  q-PCR of CEBPA, log10 (2-ΔΔCt): 2.72 and 2.6188 and 2.826
  q-PCR of GATA2, log10 (2-ΔΔCt): 1.088 and 1.1424 and 1.015
  q-PCR of MYC, log10 (2-ΔΔCt): -0.6216 and -0.5326 and -0.5822
  q-PCR of SPI1, log10 (2-ΔΔCt): 0.02692 and 0.258 and 0.1525
  q-PCR of TAL1, log10 (2-ΔΔCt): 1.716 and 1.83 and 1.719
[4]; MOLM-13, q-PCR
  CDKN1A log10 (2-ΔΔCt): 0.1026 and 0.1237 and 0.1127
  CDKN2A log10 (2-ΔΔCt): 1.026 and 0.9216 and 0.9282
  GATA2 log10 (2-ΔΔCt): 0.5214 and 0.4825 and 0.3541
  MYC log10 (2-ΔΔCt): -0.9936 and -0.8825 and -0.8494
  SPI1 log10 (2-ΔΔCt): 0.02258 and 0.0358 and 0.04789
  TAL1 log10 (2-ΔΔCt): 1.37 and 1.426 and 1.336
[5]; [12]
  q-PCR of CDKN1A (p21), log10 (2-ΔΔCt): 1.727 and 1.688 and 1.928
  q-PCR of CDKN2A (p16), log10 (2-ΔΔCt): 0.7127 and 0.6825 and 0.5556
  q-PCR of MYC, log10 (2-ΔΔCt): -0.9587 and -1.237 and -1.248
[5]; [13]
  q-PCR of CEBPA, log10 (2-ΔΔCt): 1.926 and 1.786 and 1.671
  q-PCR of GATA2, log10 (2-ΔΔCt): 2.013 and 1.996 and 2.475
  q-PCR of SPI1 (PU.1), log10 (2-ΔΔCt): 0.4833 and 0.5215 and 0.7318
  q-PCR of TAL1 (SCL), log10 (2-ΔΔCt): 1.453 and 1.626 and 1.68
[5]; [14]
  q-PCR of CEBPA: 1.831 log10 (2-ΔΔCt) and 1.961 log10 (2-ΔΔCt) and 2.004 log10 (2-ΔΔCt)
  q-PCR of GATA2: 1.288 log10 (2-ΔΔCt) and 1.216 log10 (2-ΔΔCt) and 1.319 log10 (2-ΔΔCt)
  q-PCR of MYC: -0.6622 log10 (2-ΔΔCt) and -0.5247 log10 (2-ΔΔCt) and -0.8222 log10 (2-ΔΔCt)
  q-PCR of SPI1: 0.8685 log10 (2-ΔΔCt) and 0.5818 log10 (2-ΔΔCt) and 0.6427 log10 (2-ΔΔCt)
  q-PCR of TAL1: 1.398 log10 (2-ΔΔCt) and 0.9599 log10 (2-ΔΔCt) and 0.8228 log10 (2-ΔΔCt)
[6]; [15]
  q-PCR of CEBPA, log10 (2-ΔΔCt): 1.278 and 1.212 and 1.279
  q-PCR of GATA2, log10 (2-ΔΔCt): 2.088 and 2.042 and 2.015
  q-PCR of MYC, log10 (2-ΔΔCt): -0.6051 and -0.8193 and -0.727
  q-PCR of SPI1, log10 (2-ΔΔCt): 0.513 and 0.595 and 0.5328
  q-PCR of TAL1, log10 (2-ΔΔCt): 0.8637 and 0.6983 and 1.049
[6]; MV4-11, q-PCR
  CDKN1A log10 (2-ΔΔCt): 0.6259 and 0.6326 and 0.6646
  CDKN2A log10 (2-ΔΔCt): 0.8926 and 0.6026 and 0.7418
  CEBPA log10 (2-ΔΔCt): 1.982 and 1.782 and 1.913
  MYC log10 (2-ΔΔCt): -0.7926 and -0.6522 and -0.726
  SPI1 log10 (2-ΔΔCt): 0.2626 and 0.2252 and 0.159
  TAL1 log10 (2-ΔΔCt): 0.5124 and 0.5 and 0.5901
[7]
  pIC50: 7.85
[7]; 10 µM, source data of Fig. 1B
  inhibition at 10 µM: 90%
